Results published in US9139557B2, “Carboxamide compounds and their use as calpain inhibitors” (Abbott GmbH & Co. KG, priority 2006, dated 2015).

Tests used:
Type in all cases: biochemical
cathepsin S = biological target: T1, cathepsin S (Homo sapiens, UniProt P25774); assay: Cathepsin S enzyme inhibition in vitro (kinetic fluorescence assay); conditions: Ki(cathepsin S)/Ki(calpain) ratio
T1 construct: purchased Calbiochem 219343; host or cells: E. coli
Outline: (§1)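 Kinetic fluorescence (ex 390/em 460 nm), room temperature: calpain-I (human erythrocyte, 20 nM) with 100 µM Suc-Leu-Tyr-AMC, imidazole/CaCl2 pH 7.3; cathepsin B (liver, 0.25 nM), 100 µM Z-Phe-Arg-AMC; L (liver, 1 nM), 2 µM Z-Phe-Arg-AMC; S (recombinant, 0.5 nM), 20 µM Z-Val-Val-Arg-AMC; cathepsins in MES/EDTA/cysteine pH 6.0. Apparent Ki via Cheng-Prusoff, 2–4 curves averaged.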

cathepsin L = biological target: T2, cathepsin L (Homo sapiens, UniProt P07711); assay: Cathepsin L enzyme inhibition in vitro (kinetic fluorescence assay); conditions: Ki(cathepsin L)/Ki(calpain) ratio
T2 construct: cathepsin L—isolated from human liver; purchased Calbiochem 219402; host or cells: human liver (tissue isolate)
T2 sequence (P07711 114-333): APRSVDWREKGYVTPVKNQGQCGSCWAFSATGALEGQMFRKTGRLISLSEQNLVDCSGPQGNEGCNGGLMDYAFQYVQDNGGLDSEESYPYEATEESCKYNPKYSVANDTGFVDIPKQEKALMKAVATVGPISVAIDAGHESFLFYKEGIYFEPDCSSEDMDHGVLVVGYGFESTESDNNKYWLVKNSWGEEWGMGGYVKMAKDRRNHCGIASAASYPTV
Outline: as §1

cathepsin K = biological target: T3, cathepsin K (Homo sapiens, UniProt P43235); assay: Cathepsin K enzyme inhibition in vitro (kinetic fluorescence assay); conditions: Ki(cathepsin K)/Ki(calpain) ratio
T3 construct: purchased Calbiochem 342001; host or cells: E. coli
T3 sequence (P43235 115-329): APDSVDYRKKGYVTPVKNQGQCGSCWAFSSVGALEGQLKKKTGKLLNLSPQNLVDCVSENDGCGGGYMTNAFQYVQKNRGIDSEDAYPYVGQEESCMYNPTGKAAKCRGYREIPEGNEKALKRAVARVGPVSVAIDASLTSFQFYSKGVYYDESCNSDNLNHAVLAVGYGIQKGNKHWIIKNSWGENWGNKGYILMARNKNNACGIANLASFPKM

cathepsin B = biological target: T4, cathepsin B (Homo sapiens, UniProt P07858); assay: Cathepsin B enzyme inhibition in vitro (kinetic fluorescence assay); conditions: Ki(cathepsin B)/Ki(calpain) ratio
T4 construct: cathepsin B—isolated from human liver; purchased Calbiochem 219362; host or cells: human liver (tissue isolate)
Outline: as §1

T1 sequence (P25774 115-331): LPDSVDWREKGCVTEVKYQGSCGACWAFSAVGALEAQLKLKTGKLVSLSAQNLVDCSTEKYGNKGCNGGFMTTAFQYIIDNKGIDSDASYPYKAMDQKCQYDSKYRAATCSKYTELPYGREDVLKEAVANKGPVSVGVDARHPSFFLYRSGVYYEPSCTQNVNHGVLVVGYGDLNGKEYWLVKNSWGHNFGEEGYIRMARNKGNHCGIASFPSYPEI

Compound: NC(=O)C(=O)C(Cc1ccccc1)NC(=O)c1cccnc1-n1ccc(-c2cc(C(F)(F)F)ccc2CN2CCOCC2)n1 (centres unmarked) [Example 163, N-[3-Amino-2,3-dioxo-1-(phenylmethyl)propyl]-2-{3-[2-(morpholin-4-ylmethyl)-5-(trifluoromethyl)phenyl]-1H-pyrazol-1-yl}pyridine-3-carboxamide]
- Sel cat. S (cathepsin S): ++ (++ means a Ki(cathepsin S)/Ki(calpain) ratio of ≧100)
- Sel cat. L (cathepsin L): + (+ means 30≦Ki(cathepsin L)/Ki(calpain)<50)
- Sel cat. K (cathepsin K): + (+ means 10≦Ki(cathepsin K)/Ki(calpain)<30)
- Sel cat. B (cathepsin B): + (+ means 10≦Ki(cathepsin B)/Ki(calpain)<30)

Compound: NC(=O)C(=O)C(Cc1ccccc1)NC(=O)c1cccnc1-n1ccc(-c2cccc3c2OCC3)n1 (centres unmarked) [Example 164, N-[3-Amino-2,3-dioxo-1-(phenylmethyl)propyl]-2-[3-(2,3-dihydro-1-benzofuran-7-yl)-1H-pyrazol-1-yl]pyridine-3-carboxamide]
- Sel cat. S (cathepsin S): ++ (++ means a Ki(cathepsin S)/Ki(calpain) ratio of ≧100)
- Sel cat. L (cathepsin L): ++ (++ means a Ki(cathepsin L)/Ki(calpain) ratio of ≧50)
- Sel cat. K (cathepsin K): ++ (++ means a Ki(cathepsin K)/Ki(calpain) ratio of ≧30)
- Sel cat. B (cathepsin B): + (+ means 10≦Ki(cathepsin B)/Ki(calpain)<30)

Compound: NC(=O)C(=O)C(Cc1ccccc1)NC(=O)c1cccnc1-n1ccc(-c2ccccc2OC(F)F)n1 (centres unmarked) [Example 166, N-[3-Amino-2,3-dioxo-1-(phenylmethyl)propyl]-2-(3-{2-[(difluoromethyl)oxy]phenyl}-1H-pyrazol-1-yl)pyridine-3-carboxamide]
- Sel cat. S (cathepsin S): ++ (++ means a Ki(cathepsin S)/Ki(calpain) ratio of ≧100)
- Sel cat. L (cathepsin L): ++ (++ means a Ki(cathepsin L)/Ki(calpain) ratio of ≧50)
- Sel cat. K (cathepsin K): ++ (++ means a Ki(cathepsin K)/Ki(calpain) ratio of ≧30)
- Sel cat. B (cathepsin B): + (+ means 10≦Ki(cathepsin B)/Ki(calpain)<30)

Compound: NC(=O)C(=O)C(Cc1ccccc1)NC(=O)c1cccnc1-n1ccc(-c2cccc(OC(F)(F)F)c2)n1 (centres unmarked) [Example 168, N-[3-Amino-2,3-dioxo-1-(phenylmethyl)propyl]-2-(3-{3-[(trifluoromethyl)oxy]phenyl}-1H-pyrazol-1-yl)pyridine-3-carboxamide]
- Sel cat. S (cathepsin S): ++ (++ means a Ki(cathepsin S)/Ki(calpain) ratio of ≧100)
- Sel cat. L (cathepsin L): ++ (++ means a Ki(cathepsin L)/Ki(calpain) ratio of ≧50)
- Sel cat. K (cathepsin K): + (+ means 10≦Ki(cathepsin K)/Ki(calpain)<30)
- Sel cat. B (cathepsin B): + (+ means 10≦Ki(cathepsin B)/Ki(calpain)<30)

Compound: NC(=O)C(=O)C(Cc1ccccc1)NC(=O)c1cccnc1-n1cc2c(n1)-c1ccccc1SC2 (centres unmarked) [Example 173, N-[3-Amino-2,3-dioxo-1-(phenylmethyl)propyl]-2-thiochromeno[4,3-c]pyrazol-2(4H)-ylpyridine-3-carboxamide]
- Sel cat. S (cathepsin S): ++ (++ means a Ki(cathepsin S)/Ki(calpain) ratio of ≧100)
- Sel cat. L (cathepsin L): ++ (++ means a Ki(cathepsin L)/Ki(calpain) ratio of ≧50)
- Sel cat. K (cathepsin K): + (+ means 10≦Ki(cathepsin K)/Ki(calpain)<30)
- Sel cat. B (cathepsin B): + (+ means 10≦Ki(cathepsin B)/Ki(calpain)<30)

Compound: NC(=O)C(=O)C(Cc1ccccc1)NC(=O)c1cccnc1-n1cc2c(n1)-c1ccccc1S(=O)(=O)C2 (centres unmarked) [Example 174, N-[3-Amino-2,3-dioxo-1-(phenylmethyl)propyl]-2-(5,5-dioxidothiochromeno[4,3-c]pyrazol-2(4H)-yl)pyridine-3-carboxamide]
- Sel cat. S (cathepsin S): ++ (++ means a Ki(cathepsin S)/Ki(calpain) ratio of ≧100)
- Sel cat. L (cathepsin L): ++ (++ means a Ki(cathepsin L)/Ki(calpain) ratio of ≧50)
- Sel cat. K (cathepsin K): + (+ means 10≦Ki(cathepsin K)/Ki(calpain)<30)
- Sel cat. B (cathepsin B): + (+ means 10≦Ki(cathepsin B)/Ki(calpain)<30)

Compound: NC(=O)C(=O)C(Cc1ccccc1)NC(=O)c1cccnc1-n1cc2c(n1)-c1cccc(Cl)c1OC2 (centres unmarked) [Example 175, N-[3-Amino-2,3-dioxo-1-(phenylmethyl)propyl]-2-(6-chlorochromeno[4,3-c]pyrazol-2(4H)-yl)pyridine-3-carboxamide]
- Sel cat. S (cathepsin S): ++ (++ means a Ki(cathepsin S)/Ki(calpain) ratio of ≧100)
- Sel cat. L (cathepsin L): ++ (++ means a Ki(cathepsin L)/Ki(calpain) ratio of ≧50)
- Sel cat. K (cathepsin K): ++ (++ means a Ki(cathepsin K)/Ki(calpain) ratio of ≧30)
- Sel cat. B (cathepsin B): ++ (++ means a Ki(cathepsin B)/Ki(calpain) ratio of ≧30)

Compound: COc1ccc2c(c1)-c1nn(-c3ncccc3C(=O)NC(Cc3ccccc3)C(=O)C(N)=O)cc1CO2 (centres unmarked) [Example 183, N-[3-Amino-2,3-dioxo-1-(phenylmethyl)propyl]-2-[8-(methyloxy)chromeno[4,3-c]pyrazol-2(4H)-yl]pyridine-3-carboxamide]
- Sel cat. S (cathepsin S): ++ (++ means a Ki(cathepsin S)/Ki(calpain) ratio of ≧100)
- Sel cat. L (cathepsin L): ++ (++ means a Ki(cathepsin L)/Ki(calpain) ratio of ≧50)
- Sel cat. K (cathepsin K): + (+ means 10≦Ki(cathepsin K)/Ki(calpain)<30)
- Sel cat. B (cathepsin B): + (+ means 10≦Ki(cathepsin B)/Ki(calpain)<30)

Compound: NC(=O)C(=O)C(Cc1ccccc1)NC(=O)c1cccnc1-n1cc(Cl)c(-c2ccc(F)cc2)n1 (centres unmarked) [Example 184, N-[3-Amino-2,3-dioxo-1-(phenylmethyl)propyl]-2-[4-chloro-3-(4-fluorophenyl)-1H-pyrazol-1-yl]pyridine-3-carboxamide]
- Sel cat. S (cathepsin S): ++ (++ means a Ki(cathepsin S)/Ki(calpain) ratio of ≧100)
- Sel cat. L (cathepsin L): ++ (++ means a Ki(cathepsin L)/Ki(calpain) ratio of ≧50)
- Sel cat. K (cathepsin K): + (+ means 10≦Ki(cathepsin K)/Ki(calpain)<30)
- Sel cat. B (cathepsin B): + (+ means 10≦Ki(cathepsin B)/Ki(calpain)<30)

Compound: NC(=O)C(=O)C(Cc1ccccc1)NC(=O)c1cccnc1-n1ccc(C23CC4CC(CC(C4)C2)C3)n1 (centres unmarked) [Example 193, N-[3-Amino-2,3-dioxo-1-(phenylmethyl)propyl]-2-(3-tricyclo[3.3.1.1^3,7]dec-1-yl-1H-pyrazol-1-yl)pyridine-3-carboxamide]
- Sel cat. S (cathepsin S): ++ (++ means a Ki(cathepsin S)/Ki(calpain) ratio of ≧100)
- Sel cat. L (cathepsin L): ++ (++ means a Ki(cathepsin L)/Ki(calpain) ratio of ≧50)
- Sel cat. K (cathepsin K): ++ (++ means a Ki(cathepsin K)/Ki(calpain) ratio of ≧30)
- Sel cat. B (cathepsin B): ++ (++ means a Ki(cathepsin B)/Ki(calpain) ratio of ≧30)

Compound: N-[3-Amino-2,3-dioxo-1-(phenylmethyl)propyl]-2-[3-(3,5-dichlorophenyl)-1H-pyrazol-1-yl]pyridine-3-carboxamide [Example 89]
- Sel cat. S (cathepsin S): ++ (++ means a Ki(cathepsin S)/Ki(calpain) ratio of ≧100)
- Sel cat. L (cathepsin L): ++ (++ means a Ki(cathepsin L)/Ki(calpain) ratio of ≧50)
- Sel cat. K (cathepsin K): + (+ means 10≦Ki(cathepsin K)/Ki(calpain)<30)
- Sel cat. B (cathepsin B): + (+ means 10≦Ki(cathepsin B)/Ki(calpain)<30)
